Results on 10 compounds are retold here after patent publication US10561749B2, “Nuclear medicine diagnostic imaging agent” (Kyoto University, priority 2015, dated 2020).

What all share (assay type): biochemical
In one assay the target is T1, EGFR (T790M, L858R) (Homo sapiens, UniProt P00533, L858R/T790M).
T1 construct: purchased Promega V5324
Briefly: EGFR tyrosine kinase inhibiting activity, ADP-Glo (EGFR (T790M, L858R) Kinase Enzyme System, DM). The following applies: for IC50: read-out: EGFR Kinase inhibition: IC50 DM; for EGFR Kinase inhibition: IC50 DM: ATP 10 μM, max concentration 20 μM, >10: <50% inhibition at 10 μM, no active: almost no activity at 20 μM. The protocol: (§1) Four types of EGFR Kinase Enzyme Systems, specifically, EGFR Kinase Enzyme System (Catalog No. V3831), EGFR (L858R) Kinase Enzyme System (Catalog No. V5322), EGFR (T790M) Kinase Enzyme System (Catalog No. V4506), and EGFR (T790M, L858R) Kinase Enzyme System (Catalog No. V5324) were used (all of them were manufactured by Promega).
(§2) The measurement was carried out according to the Promega protocol applications guide. That is, a buffer solution (40 mM Tris-HCl, pH 7.5, 20 mM MgCl2, 50 μM DTT and 0.1 mg/mL BSA) was used as a dilute solution. The concentration of each compound started at 20 μM (the final concentration, including 1% DMSO) with 5-fold dilutions with the buffer solution. Thus, ten concentrations of each compound were prepared. Then, 2 μL of each concentration of each compound thus obtained was added to each well of a 384-well plate. Furthermore, 4 μL (20 ng) of an EGFR Kinase […] that came with each EGFR Kinase Enzyme System was added to each well, which then was incubated at room temperature for ten minutes. Subsequently, 4 μL of mixed solution of ATP (10 μM) and Poly(Glu, Tyr) (2 μg) substrate was added to each well, which then was incubated at room temperature for one hour. Then, 10 μL of ADP-Glo™ Reagent (ADP-Glo™ Kinase Assay, Promega) was added to each well, which then was reacted at room temperature for 40 minutes. Furthermore, 20 μL of Kinase Detection Reagent (ADP-Glo™ Kinase Assay, Promega) was added to each well, which then was reacted at room temperature for one hour. […] From the data thus obtained, dose-response curves and IC50 were calculated using GraphPad Prism 5 (GraphPad Software, Inc.). In Table 1 below, WT indicates the measurement results obtained with the EGFR Kinase Enzyme System, L858R indicates the measurement results obtained with the EGFR (L858R) Kinase Enzyme System, T790M indicates the measurement results obtained with the EGFR (T790M) Kinase Enzyme System, and DM indicates the measurement results obtained with the EGFR (T790M, L858R) Kinase Enzyme System.

For assay [1], the target named is T2, EGFR tyrosine kinase (WT) (Homo sapiens, UniProt P00533).
T2 construct: purchased Promega V3831
T2 sequence (P00533 25-1210): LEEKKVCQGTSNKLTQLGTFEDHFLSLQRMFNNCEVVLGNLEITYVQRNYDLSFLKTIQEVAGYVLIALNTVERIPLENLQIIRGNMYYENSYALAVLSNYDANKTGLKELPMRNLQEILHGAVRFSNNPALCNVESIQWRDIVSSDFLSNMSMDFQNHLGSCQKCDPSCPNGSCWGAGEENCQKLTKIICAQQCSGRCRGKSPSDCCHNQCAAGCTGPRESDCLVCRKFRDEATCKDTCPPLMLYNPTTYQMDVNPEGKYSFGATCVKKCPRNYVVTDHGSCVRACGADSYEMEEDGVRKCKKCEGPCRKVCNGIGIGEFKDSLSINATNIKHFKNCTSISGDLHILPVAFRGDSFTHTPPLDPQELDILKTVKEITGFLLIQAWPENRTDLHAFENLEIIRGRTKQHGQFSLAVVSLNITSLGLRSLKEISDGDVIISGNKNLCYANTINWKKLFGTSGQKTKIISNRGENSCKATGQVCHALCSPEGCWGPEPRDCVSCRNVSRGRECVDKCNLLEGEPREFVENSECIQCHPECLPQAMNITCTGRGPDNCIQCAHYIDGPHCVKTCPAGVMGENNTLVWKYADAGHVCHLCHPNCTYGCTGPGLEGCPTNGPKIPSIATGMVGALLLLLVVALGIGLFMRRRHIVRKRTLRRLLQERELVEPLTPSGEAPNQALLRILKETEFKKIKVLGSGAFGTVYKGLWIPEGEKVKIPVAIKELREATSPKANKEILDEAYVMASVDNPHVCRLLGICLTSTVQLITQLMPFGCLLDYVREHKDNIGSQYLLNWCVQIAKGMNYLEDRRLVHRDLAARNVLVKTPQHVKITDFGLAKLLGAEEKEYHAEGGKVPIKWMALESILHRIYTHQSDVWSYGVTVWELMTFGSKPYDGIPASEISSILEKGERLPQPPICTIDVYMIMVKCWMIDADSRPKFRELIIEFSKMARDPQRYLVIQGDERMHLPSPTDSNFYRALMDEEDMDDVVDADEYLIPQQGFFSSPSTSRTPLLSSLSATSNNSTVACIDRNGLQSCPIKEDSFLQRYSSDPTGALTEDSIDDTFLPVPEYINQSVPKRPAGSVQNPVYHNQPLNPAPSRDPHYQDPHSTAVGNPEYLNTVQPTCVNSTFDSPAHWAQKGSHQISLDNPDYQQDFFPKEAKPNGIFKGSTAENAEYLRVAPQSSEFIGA
As to the kind of experiment: EGFR tyrosine kinase inhibiting activity, ADP-Glo (EGFR Kinase Enzyme System, WT). To be noted: read-out: EGFR Kinase inhibition: IC50 WT. The procedure: as §1, §2
(In general: ADP-Glo first removes unused ATP, then detects ADP through luciferase.)

The target of another assay is T3, EGFR (L858R) (Homo sapiens, UniProt P00533, L858R).
T3 construct: purchased Promega V5322
T3 sequence (P00533 25-1210 L858R): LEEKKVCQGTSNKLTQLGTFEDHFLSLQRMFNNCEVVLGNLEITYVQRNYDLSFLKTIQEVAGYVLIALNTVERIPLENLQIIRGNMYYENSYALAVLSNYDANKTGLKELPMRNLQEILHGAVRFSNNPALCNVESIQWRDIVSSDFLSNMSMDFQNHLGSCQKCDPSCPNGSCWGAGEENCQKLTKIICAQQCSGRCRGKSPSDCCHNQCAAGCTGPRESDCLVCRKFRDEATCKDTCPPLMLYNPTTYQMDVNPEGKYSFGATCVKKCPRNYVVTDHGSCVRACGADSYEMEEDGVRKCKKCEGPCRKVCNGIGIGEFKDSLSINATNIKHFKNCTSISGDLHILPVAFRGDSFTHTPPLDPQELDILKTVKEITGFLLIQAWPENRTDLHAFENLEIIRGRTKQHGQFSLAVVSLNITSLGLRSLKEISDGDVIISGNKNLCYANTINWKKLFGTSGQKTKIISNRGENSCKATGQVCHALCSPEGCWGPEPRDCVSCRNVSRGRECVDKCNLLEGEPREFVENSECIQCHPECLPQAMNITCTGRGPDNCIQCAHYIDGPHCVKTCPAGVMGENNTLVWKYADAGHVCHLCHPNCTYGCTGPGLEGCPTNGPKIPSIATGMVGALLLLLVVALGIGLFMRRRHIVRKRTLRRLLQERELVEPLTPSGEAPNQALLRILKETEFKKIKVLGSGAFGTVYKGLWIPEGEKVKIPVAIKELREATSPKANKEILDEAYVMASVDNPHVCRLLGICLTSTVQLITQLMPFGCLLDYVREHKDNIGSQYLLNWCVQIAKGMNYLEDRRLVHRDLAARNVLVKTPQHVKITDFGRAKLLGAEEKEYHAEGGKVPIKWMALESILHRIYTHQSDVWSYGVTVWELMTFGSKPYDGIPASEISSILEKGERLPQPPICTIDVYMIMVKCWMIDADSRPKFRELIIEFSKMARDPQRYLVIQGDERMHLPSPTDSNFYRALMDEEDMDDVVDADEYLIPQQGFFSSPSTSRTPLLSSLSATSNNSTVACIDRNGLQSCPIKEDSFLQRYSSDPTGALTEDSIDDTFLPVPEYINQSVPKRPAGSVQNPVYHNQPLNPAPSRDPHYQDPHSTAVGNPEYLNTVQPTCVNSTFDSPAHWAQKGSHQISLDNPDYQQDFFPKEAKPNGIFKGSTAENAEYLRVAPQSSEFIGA
As to the kind of experiment: EGFR tyrosine kinase inhibiting activity, ADP-Glo (EGFR (L858R) Kinase Enzyme System). The following applies: read-out: EGFR Kinase inhibition: IC50 L858R. The procedure: as §1, §2

For the next assay, the target named is T4, EGFR (T790M) (Homo sapiens, UniProt P00533, T790M).
T4 construct: purchased Promega V4506
T4 sequence (P00533 25-1210 T790M): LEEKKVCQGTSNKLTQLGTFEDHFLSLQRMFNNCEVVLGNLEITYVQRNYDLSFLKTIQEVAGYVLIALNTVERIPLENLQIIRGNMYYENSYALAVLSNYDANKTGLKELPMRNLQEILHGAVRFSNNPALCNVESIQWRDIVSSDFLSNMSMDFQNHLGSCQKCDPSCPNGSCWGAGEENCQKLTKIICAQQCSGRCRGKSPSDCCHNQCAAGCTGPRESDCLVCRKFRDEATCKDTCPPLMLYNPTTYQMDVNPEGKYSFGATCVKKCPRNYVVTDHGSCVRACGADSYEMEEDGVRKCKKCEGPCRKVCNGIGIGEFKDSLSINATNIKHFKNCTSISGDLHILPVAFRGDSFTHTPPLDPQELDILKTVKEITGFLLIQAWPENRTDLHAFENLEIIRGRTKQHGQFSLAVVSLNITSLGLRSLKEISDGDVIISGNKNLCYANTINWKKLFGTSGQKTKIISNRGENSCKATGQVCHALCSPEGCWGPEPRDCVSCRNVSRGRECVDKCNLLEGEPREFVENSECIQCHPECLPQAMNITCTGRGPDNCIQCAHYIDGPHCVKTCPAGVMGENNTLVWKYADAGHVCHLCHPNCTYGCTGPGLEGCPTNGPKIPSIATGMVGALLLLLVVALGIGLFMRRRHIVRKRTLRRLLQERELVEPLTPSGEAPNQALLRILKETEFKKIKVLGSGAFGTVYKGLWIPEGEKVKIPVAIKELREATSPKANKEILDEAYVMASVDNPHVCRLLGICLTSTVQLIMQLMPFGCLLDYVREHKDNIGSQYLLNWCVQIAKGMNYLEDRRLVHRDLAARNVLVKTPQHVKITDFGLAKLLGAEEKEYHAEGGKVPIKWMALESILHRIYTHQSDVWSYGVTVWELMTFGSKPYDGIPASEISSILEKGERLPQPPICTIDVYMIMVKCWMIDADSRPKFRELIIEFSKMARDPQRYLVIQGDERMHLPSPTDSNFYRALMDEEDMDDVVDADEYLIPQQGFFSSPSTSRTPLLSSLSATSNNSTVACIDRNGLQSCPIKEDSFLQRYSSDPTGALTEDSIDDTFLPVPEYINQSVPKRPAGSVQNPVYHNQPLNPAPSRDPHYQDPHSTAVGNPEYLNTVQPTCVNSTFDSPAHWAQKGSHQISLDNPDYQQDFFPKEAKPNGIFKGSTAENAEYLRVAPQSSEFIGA
As to the kind of experiment: EGFR tyrosine kinase inhibiting activity, ADP-Glo (EGFR (T790M) Kinase Enzyme System). The following applies: for IC50: read-out: EGFR Kinase inhibition: IC50 T790M; for EGFR Kinase inhibition: IC50 T790M: ATP 10 μM, max concentration 20 μM, >10: <50% inhibition at 10 μM, no active: almost no activity at 20 μM. The protocol:
as §1, §2

Where only a bound is given, the exact number is not on record here.

T1 sequence (P00533 25-1210 T790M/L858R): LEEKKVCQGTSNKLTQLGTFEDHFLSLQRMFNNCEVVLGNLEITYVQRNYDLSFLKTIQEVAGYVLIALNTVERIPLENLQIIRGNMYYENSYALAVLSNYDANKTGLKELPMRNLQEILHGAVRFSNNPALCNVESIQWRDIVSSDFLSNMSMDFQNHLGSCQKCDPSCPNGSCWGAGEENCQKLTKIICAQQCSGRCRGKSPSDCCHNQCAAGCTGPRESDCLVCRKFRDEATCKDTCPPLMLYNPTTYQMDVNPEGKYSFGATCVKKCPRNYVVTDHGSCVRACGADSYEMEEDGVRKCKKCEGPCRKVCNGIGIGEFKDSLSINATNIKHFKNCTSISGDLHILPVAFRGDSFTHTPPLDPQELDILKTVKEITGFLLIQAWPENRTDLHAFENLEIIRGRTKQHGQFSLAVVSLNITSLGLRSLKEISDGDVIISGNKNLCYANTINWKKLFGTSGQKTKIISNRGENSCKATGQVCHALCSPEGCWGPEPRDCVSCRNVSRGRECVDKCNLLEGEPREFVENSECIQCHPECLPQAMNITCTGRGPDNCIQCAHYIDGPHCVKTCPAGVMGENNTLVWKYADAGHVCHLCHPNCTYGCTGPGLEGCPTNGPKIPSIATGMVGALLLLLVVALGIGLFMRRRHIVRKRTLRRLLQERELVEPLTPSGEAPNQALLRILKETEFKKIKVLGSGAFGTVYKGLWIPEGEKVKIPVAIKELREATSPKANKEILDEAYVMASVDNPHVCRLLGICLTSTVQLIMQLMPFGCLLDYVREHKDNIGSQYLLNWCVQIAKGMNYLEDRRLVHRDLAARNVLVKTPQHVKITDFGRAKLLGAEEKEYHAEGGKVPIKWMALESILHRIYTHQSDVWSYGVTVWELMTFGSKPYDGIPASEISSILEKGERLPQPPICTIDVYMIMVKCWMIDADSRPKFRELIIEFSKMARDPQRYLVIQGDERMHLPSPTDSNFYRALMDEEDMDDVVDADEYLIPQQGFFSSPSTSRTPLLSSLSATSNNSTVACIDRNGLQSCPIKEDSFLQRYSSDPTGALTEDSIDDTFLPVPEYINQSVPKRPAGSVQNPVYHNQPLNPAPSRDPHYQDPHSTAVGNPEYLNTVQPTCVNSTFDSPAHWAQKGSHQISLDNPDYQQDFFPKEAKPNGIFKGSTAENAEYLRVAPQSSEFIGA

One may read the IC50 as the midpoint of a concentration-inhibition curve. As to `C[C@@H](Nc1ncnc2sc3c(c12)CCN(C(=O)/C=C/CN1CCN(CCF)CC1)C3)c1ccccc1` [P5, (R,E)-4-(4-(2-Fluoroethyl)piperazin-1-yl)-1-(4-((1-phenylethyl)amino)-5,8-dihydropyrido[4′,3′:4,5]thieno[2,3-d]pyrimidin-7(6H)-yl)but-2-en-1-one], the IC50 on EGFR (T790M, L858R) was over 10 µM; in assay [1] it was 0.13 µM; at EGFR (L858R) it was 0.027 µM; at EGFR (T790M), over 10 µM.

As to `O=C(/C=C/CN1CCN(CCF)CC1)N1CCc2c(sc3ncnc(Nc4cccc(Br)c4)c23)C1` [P8], on EGFR (T790M, L858R), the “EGFR Kinase inhibition: IC50 DM” value is on record as “no active”. For the same compound, the IC50 in assay [1] came out at 4.31 µM; on EGFR (L858R) it was 1.38 µM. On EGFR (T790M), the “EGFR Kinase inhibition: IC50 T790M” value is “no active”.

On to `COC[C@@H](Nc1ncnc2sc3c(c12)CCN(C(=O)/C=C/CN1CCN(CCF)CC1)C3)c1ccccc1` [P7], for which the “EGFR Kinase inhibition: IC50 DM” value at EGFR (T790M, L858R) was “no active”. For the same compound, the figures for the IC50 (in assay [1]; at EGFR (L858R)) were 0.374 µM and 0.051 µM, respectively. In addition, the “EGFR Kinase inhibition: IC50 T790M” value at EGFR (T790M) is “no active”.

`O=C(/C=C/CN1CCN(CCOCCOCCOCCF)CC1)N1CCc2c(sc3ncnc(N[C@H](CO)c4ccccc4)c23)C1` [P10]: the IC50 is over 10 µM on EGFR (T790M, L858R); 0.09 µM in assay [1]; 0.052 µM at EGFR (L858R); over 10 µM on EGFR (T790M).

As to `O=C(/C=C/CN1CCN(CCF)CC1)N1CCc2c(sc3ncnc(N[C@H](CO)c4ccccc4)c23)C1` [P2, (S,E)-4-(4-(2-Fluoroethyl)piperazin-1-yl)-1-(4-((2-hydroxy-1phenylethyl)amino)-5,8-dihydropyrido[4′,3′:4,5]thieno[2,3-d]pyrimidin-7(6H)-yl)but-2-en-1-one], the half-inhibitory concentration (IC50) on EGFR (T790M, L858R) is over 10 µM; in assay [1], 0.044 µM; at EGFR (L858R), 0.009 µM; at EGFR (T790M) it was 8.97 µM.

Turning to `O=C(/C=C/CN1CCN(CCF)CC1)N1CCc2c(sc3ncnc(O[C@@H](c4ccccc4)C(F)(F)F)c23)C1` [P6, (S,E)-4-(4-(2-Fluoroethyl)piperazin-1-yl)-1-(4-(2,2,2-trifluoro-1-phenylethoxy)-5,8-dihydropyrido[4′,3′:4,5]thieno[2,3-d]pyrimidin-7 (6H)-yl)but-2-en-1-one], the half-inhibitory concentration (IC50) on EGFR (T790M, L858R) was over 10 µM; in assay [1] it was 0.896 µM; at EGFR (L858R), 0.336 µM. Besides, on EGFR (T790M), the “EGFR Kinase inhibition: IC50 T790M” value was “no active”.

On to `O=C(CN1CCN(CCF)CC1)N1CCc2c(sc3ncnc(N[C@H](CO)c4ccccc4)c23)C1` [P3, (S)-2-(4-(2-Fluoroethyl)piperazin-1-yl)-1-(4-((2-hydroxy-1phenylethyl)amino)-5,8-dihydropyrido[4′,3′:4,5]thieno[2,3-d]pyrimidin-7(6H)-yl)ethan-1-one], for which the “EGFR Kinase inhibition: IC50 DM” value on EGFR (T790M, L858R) was “no active”. Moreover, the IC50 in assay [1] worked out at 4.37 µM; on EGFR (L858R) it was 2.67 µM. In addition, the “EGFR Kinase inhibition: IC50 T790M” value at EGFR (T790M) was “no active”.

Take `O=C(CCN1CCN(CCF)CC1)N1CCc2c(sc3ncnc(N[C@H](CO)c4ccccc4)c23)C1` [P4, (S)-3-(4-(2-Fluoroethyl)piperazin-1-yl)-1-(4-((2-hydroxy-1phenylethyl)amino)-5,8-dihydropyrido[4′,3′:4,5]thieno[2,3-d]pyrimidin-7(6H)-yl)propan-1-one]: the “EGFR Kinase inhibition: IC50 DM” value at EGFR (T790M, L858R) is listed as “no active”. Moreover, the half-inhibitory concentration (IC50) was determined as 2.83 µM in assay [1] and 1.83 µM at EGFR (L858R). At EGFR (T790M), the “EGFR Kinase inhibition: IC50 T790M” value was “no active”.

For the compound `OC[C@@H](Nc1ncnc2sc3c(c12)CCN(CCF)C3)c1ccccc1` [P1], on EGFR (T790M, L858R), the “EGFR Kinase inhibition: IC50 DM” value is listed as “no active”. In addition, the IC50 was determined as 2.31 µM in assay [1] and 3.41 µM on EGFR (L858R). On EGFR (T790M), the “EGFR Kinase inhibition: IC50 T790M” value is “no active”.

Consider `O=C(/C=C/CN1CCN(CCOCCF)CC1)N1CCc2c(sc3ncnc(N[C@H](CO)c4ccccc4)c23)C1` [P9], for which the half-inhibitory concentration (IC50) on EGFR (T790M, L858R) is over 10 µM; in assay [1], 0.067 µM; on EGFR (L858R), 0.031 µM; on EGFR (T790M), over 10 µM.
